Our source for the IC50 values is patent publication US12459921B2, “Isoindoline compound, preparation method, pharmaceutical composition and use thereof” (SHANGHAI INSTITUTE OF MATERIA MEDICA, CHINESE ACADEMY OF …, priority 2018, dated 2025).

This assay deals with MM.1S cells. Kind of assay: Inhibitory effect on the proliferation of MM.1S, MTS cell viability test. Type of assay: cell-based. To be noted: Homo sapiens, MM1.S, 168 h, multiple myeloma MM.1S cells, 7 days incubation, read-out: Tumor cell inhibitory activity. As for the experimental part: Method of tumor cell proliferation inhibition test: the inventors tested all the example compounds on hematologic tumor cells, multiple myeloma MMTs cell line and acute leukemia cell MV-4-11 cell line of some examples. The activity test method and results are as follows.
1. The Compound's Inhibitory Effect on the Proliferation of MM.1S, MTS Cell Viability Test:
MM.1S cells were cultured and collected with 1640 plus 10% fetal bovine serum. The cell concentration was diluted according to 7 days, and 180 ul cell suspension was added to each well of the 96-well cell plate to 20,000 cells. 20 ul of DMSO with a final concentration of 0.2% was added to the control wells. The compound was 5-fold diluted—from the 10 mM stock solution, and 20 ul was also added to each compound cell well (the final concentration of DMSO was 0.2%). The cells were placed in a 37° C., 5% CO2 incubator to incubate for 7 days. After the reaction solution was prepared according to the MTS kit (Promega, G5430), 20 μL was added to each well and incubated in a 37° C., 5% CO2 incubator for 3-4 h. Absorbance value at 490 nm was read with a microtiter plate, and 690 nm absorbance value was used as the background value. OD490-OD690 was used as the final initial data. The formula for calculating the inhibition rate of the compound is: inhibition rate=(ODDMSO-ODcompound)/(ODDMSO-Oblank)×100%. The compound's proliferation inhibition IC50 was fitted by Graph Pad Prism 5.0. The experiment was repeated three times, and the average and standard deviation was calculated according to the three parallel experiments.
Cell viability test results: **** represents cell viability IC50>20 μM, […] represents cell viability 1 μM<IC50<20 μM, ** represents cell viability 100 nM<IC50<1 μM, * represents cell viability IC50<100 nM.

As for `O=C1CCC(N2Cc3c(CCCCN4CCN(c5c(Cl)cccc5Cl)CC4)cccc3C2=O)C(=O)N1` (stereo not drawn) [Example 48, 3-(4-(4-(4-(2,6-dichlorophenyl)piperazine-1-)butyl)-1-oxoisoindoline-2-)piperidine-2,6-dione], the IC50 was under 0.1 µM.

For `N#CC1(c2ccc(Cl)cc2)CCN(CCCCCc2cccc3c2CN(C2CCC(=O)NC2=O)C3=O)CC1` (stereo not drawn) [Example 49, 4-(4-chlorophenyl)-1-(5-(2-(2,6-dioxopiperidine-3-)-1-oxoisoindoline-4-)pentyl) piperidine-4-carbonitrile], the IC50 was under 0.1 µM.

As to `C[C@]1(N2C(=O)c3cccc(OCCCN4CCC(C#N)(c5ccccc5Cl)CC4)c3C2=O)CCC(=O)NC1=O` [Example 50, (S)-4-(2-chlorophenyl)-1-(3-((2-(3-methyl-2,6-dioxopiperidine-3-)-1,3-dioxoisoindoline-4-)oxy)propyl)piperidine-4-carbonitrile], the IC50 was in the range of 1 to 20 µM.

As to `C[C@]1(N2Cc3c(OCCCN4CCC(C#N)(c5cccc(Cl)c5)CC4)cccc3C2=O)CCC(=O)NC1=O` [Example 52, (S)-4-(3-chlorophenyl)-1-(3-((2-(3-methyl-2,6-dioxopiperidine-3-)-1-oxoisoindole-4-)oxy)propyl)piperidine-4-carbonitrile], the IC50 is 1 to 20 µM.

On to `N#CC1(c2ccccc2)CCN(CCCOc2cccc3c2CN(C2CCC(=O)NC2=O)C3=O)CC1` (stereo not drawn) [Example 53, 1-(3-((2-(2,6-dioxopiperidine-3-)-1-oxoisoindoline-4-)oxy)propyl)-4-phenylpiperidine-4-carboxonitrile], for which the IC50 was under 0.1 µM.

Regarding `C[C@]1(N2C(=O)c3cccc(OCCCN4CCC(C#N)(c5cccc(Cl)c5)CC4)c3C2=O)CCC(=O)NC1=O` [Example 54, (S)-4-(3-chlorophenyl)-1-(3-((2-(3-methyl-2,6-dioxopiperidine-3-)-1,3-dioxoisoindoline-4-)oxy)propyl)piperidine-4-carbonitrile], the IC50 was 1 to 20 µM.

As for `N#CC1(c2ccccc2Cl)CCN(CCCOc2cccc3c2CN(C2CCC(=O)NC2=O)C3=O)CC1` (stereo not drawn) [Example 55, 4-(2-chlorophenyl)-1-(3-((2-(2,6-dioxopiperidine-3-)-1-oxoisoindoline-4-)oxy)propyl)piperidine-4-carbonitrile], the IC50 was under 0.1 µM.

For `C[C@]1(N2Cc3c(OCCCN4CCC(C#N)(c5ccccc5OC(F)(F)F)CC4)cccc3C2=O)CCC(=O)NC1=O` [Example 56, (S)-1-(3-((2-(3-methyl-2,6-dioxopiperidine-3-)-1-oxoisoindoline-4-)oxy)propyl)-4-(2-(trifluoromethoxy)phenyl)piperidine-4-carbonitrile], the IC50 was 1 to 20 µM.

Take `N#CC1(c2cccc(Cl)c2)CCN(CCCOc2cccc3c2CN(C2CCC(=O)NC2=O)C3=O)CC1` (stereo not drawn) [Example 57, 4-(3-chlorophenyl)-1-(3-((2-(2,6-dioxopiperidine-3-)-1-oxoisoindoline-4-)oxy)propyl)piperidine-4-carbonitrile]: the IC50 is under 0.1 µM.

With `C[C@]1(N2C(=O)c3cccc(OCCCN4CCC(C#N)(c5ccccc5OC(F)(F)F)CC4)c3C2=O)CCC(=O)NC1=O` [Example 58, (S)-1-(3-((2-(3-methyl-2,6-dioxopiperidine-3-)-1,3-dioxoisoindoline-4-)oxy)propyl)-4-(2-(trifluoromethoxy)phenyl)piperidine-4-carbonitrile], the IC50 was in the range of 1 to 20 µM.

Take `N#CC1(c2ccc(Cl)cc2)CCN(CCCOc2cccc3c2CN(C2CCC(=O)NC2=O)C3=O)CC1` (stereo not drawn) [Example 59, 4-(4-chlorophenyl)-1-(3-((2-(2,6-dioxopiperidine-3-)-1-oxoisoindoline-4-)oxy)propyl)piperidine-4-carbonitrile]: the IC50 was under 0.1 µM.

Consider `C[C@]1(N2Cc3c(OCCCN4CCC(C#N)(c5cccc(OC(F)(F)F)c5)CC4)cccc3C2=O)CCC(=O)NC1=O` [Example 60, (S)-1-(3-((2-(3-methyl-2,6-dioxopiperidine-3-)-1-oxoisoindoline-4-)oxy)propyl)-4-(3-(trifluoromethoxy)phenyl)piperidine-4-carbonitrile], for which the IC50 lay in the range of 1 to 20 µM.

In the case of `N#CC1(c2ccccc2F)CCN(CCCOc2cccc3c2CN(C2CCC(=O)NC2=O)C3=O)CC1` (stereo not drawn) [Example 61, 1-(3-((2-(2,6-dioxopiperidine-3-)-1-oxoisoindoline-4-)oxy)propyl)-4-(2-fluorophenyl)piperidine-4-carbonitrile], the IC50 lay within 0.1 to 1 µM.

On to `C[C@]1(N2C(=O)c3cccc(OCCCN4CCC(C#N)(c5cccc(OC(F)(F)F)c5)CC4)c3C2=O)CCC(=O)NC1=O` [Example 62, (S)-1-(3-((2-(3-methyl-2,6-dioxopiperidine-3-)-1,3-dioxoisoindoline-4-)oxy)propyl)-4-(3-(trifluoromethoxy)phenyl)piperidine-4-carbonitrile], for which the IC50 was 1 to 20 µM.

With `N#CC1(c2cccc(F)c2)CCN(CCCOc2cccc3c2CN(C2CCC(=O)NC2=O)C3=O)CC1` (stereo not drawn) [Example 63, 1-(3-((2-(2,6-dioxopiperidine-3-)-1-oxoisoindoline-4-)oxy)propyl)-4-(3-fluorophenyl)piperidine-4-carbonitrile], the IC50 fell in the range of 0.1 to 1 µM.

For the compound `N#CC1(c2ccccc2Cl)CCN(CCOc2cccc3c2CN(C2CCC(=O)NC2=O)C3=O)CC1` (stereo not drawn) [Example 64, 4-(2-chlorophenyl)-1-(2-((2-(2,6-dioxopiperidine-3-)-1-oxoisoindoline-4-)oxy)ethyl) piperidine-4-carbonitrile], the IC50 was 0.1 to 1 µM.

`N#CC1(c2ccc(F)cc2)CCN(CCCOc2cccc3c2CN(C2CCC(=O)NC2=O)C3=O)CC1` (stereo not drawn) [Example 65, 1-(3-((2-(2,6-dioxopiperidine-3-)-1-oxoisoindoline-4-)oxy)propyl)-4-(4-fluorophenyl)piperidine-4-carbonitrile]: the IC50 was in the range of 0.1 to 1 µM.

Turning to `N#CC1(c2cccc(OC(F)(F)F)c2)CCN(CCOc2cccc3c2CN(C2CCC(=O)NC2=O)C3=O)CC1` (stereo not drawn) [Example 66, 1-(2-((2-(2,6-dioxopiperidine-3-)-1-oxoisoindoline-4-)oxy)ethyl)-4-(3-(trifluoromethoxy)phenyl)piperidine-4-carbonitrile], the IC50 is 0.1 to 1 µM.

`N#Cc1cccc(C2(C#N)CCN(CCCOc3cccc4c3CN(C3CCC(=O)NC3=O)C4=O)CC2)c1` (stereo not drawn) [Example 67, 4-(3-cyanophenyl)-1-(3-((2-(2,6-dioxopiperidine-3-)-1-oxoisoindoline-4-)oxy)propyl)piperidine-4-carbonitrile]: the IC50 lay within 0.1 to 1 µM.

As for `N#CC1(c2c(F)cccc2Cl)CCN(CCCOc2cccc3c2CN(C2CCC(=O)NC2=O)C3=O)CC1` (stereo not drawn) [Example 68, 4-(2-chloro-6-fluorophenyl)-1-(3-((2-(2,6-dioxopiperidine-3-)-1-oxoisoindoline-4-)oxy)propyl)piperidine-4-carbonitrile], the IC50 was under 0.1 µM.

For the compound `N#Cc1ccc(C2(C#N)CCN(CCCOc3cccc4c3CN(C3CCC(=O)NC3=O)C4=O)CC2)cc1` (stereo not drawn) [Example 69, 4-(4-cyanophenyl)-1-(3-((2-(2,6-dioxopiperidine-3-)-1-oxoisoindoline-4-)oxy)propyl)piperidine-4-carbonitrile], the IC50 lay in the range of 0.1 to 1 µM.

In the case of `N#CC1(c2ccc(Cl)cc2Cl)CCN(CCCOc2cccc3c2CN(C2CCC(=O)NC2=O)C3=O)CC1` (stereo not drawn) [Example 70, 4-(2,4-chlorophenyl)-1-(3-((2-(2,6-dioxopiperidine-3-)-1-oxoisoindoline-4-)oxy)propyl)piperidine-4-carbonitrile], the IC50 was under 0.1 µM.

On to `N#CC1(c2cccc(OC(F)(F)F)c2)CCN(CCCOc2cccc3c2CN(C2CCC(=O)NC2=O)C3=O)CC1` (stereo not drawn) [Example 71, 1-(3-((2-(2,6-dioxopiperidine-3-)-1-oxoisoindoline-4-)oxy)propyl)-4-(3-trifluoromethoxyphenyl)piperidine-4-carbonitrile], for which the IC50 was under 0.1 µM.

With `N#CC1(c2ccc(Cl)cc2F)CCN(CCCOc2cccc3c2CN(C2CCC(=O)NC2=O)C3=O)CC1` (stereo not drawn) [Example 72, 4-(4-chloro-2-fluorophenyl)-1-(3-((2-(2,6-dioxopiperidine-3-)-1-oxoisoindoline-4-)oxy)propyl)piperidine-4-carbonitrile], the IC50 is under 0.1 µM.

On to `N#CC1(c2ccc(OC(F)(F)F)cc2)CCN(CCCOc2cccc3c2CN(C2CCC(=O)NC2=O)C3=O)CC1` (stereo not drawn) [Example 73, 1-(3-((2-(2,6-dioxopiperidine-3-)-1-oxoisoindoline-4-)oxy)propyl)-4-(4-trifluoromethoxyphenyl)piperidine-4-carbonitrile], for which the IC50 is under 0.1 µM.

Regarding `N#CC1(c2ccc(F)cc2Cl)CCN(CCCOc2cccc3c2CN(C2CCC(=O)NC2=O)C3=O)CC1` (stereo not drawn) [Example 74, 4-(2-chloro-4-fluorophenyl)-1-(3-((2-(2,6-dioxopiperidine-3-)-1-oxoisoindoline-4-)oxy)propyl)piperidine-4-carbonitrile], the IC50 was under 0.1 µM.

Consider `N#CC1(c2cccc(Cl)c2)CCN(CCCCOc2cccc3c2CN(C2CCC(=O)NC2=O)C3=O)CC1` (stereo not drawn) [Example 75, 4-(3-chlorophenyl)-1-(4-((2-(2,6-dioxopiperidine-3-)-1-oxoisoindoline-4-)oxy)butyl)piperidine-4-carbonitrile], for which the IC50 was 0.1 to 1 µM.
